In patent US12466875B2, “Supramolecular high affinity protein-binding system for purification of biomacromolecules” (THE JOHNS HOPKINS UNIVERSITY, priority 2017, dated 2025):
Entries after “also recorded” stand apart in the source; their conditions may differ.

Tested on: FITC-IgG
Assay: Confocal fluorescence imaging with FITC-IgG
Format: binding
Conditions: 2 μM FITC-IgG in PBS pH 7.4
Source text: FIGS. 10A-C. […] (A) Image of Rhodamine B fluorescence. (B) Image of FITC fluorescence and (C) merged image of (A) and (B). Scale bar: 20 μm.
To better visualize the interactions between C12-Z33 immunofibers and IgG, labelling the C12-Z33 with the fluorescent dye (Rhodamine B) allows for direct imaging of fluorescent immunofibers and FITC-IgG under a confocal laser scanning microscope. Rhodamine B has been extensively used for staining biomaterials. […] The self-assembled fibrous morphology in PBS was confirmed using TEM (FIG. 9C). 100 μM RB-C12-Z33 diluted from a 1 mM stock solution and 2 μM FITC-IgG were premixed in PBS. 30 μl solution was spotted on a clean microscope slide right before imaging and covered by a coverslip to obtain a thin layer of liquid.

RB-C12-Z33: Rhodamine B labelled C12-Z33; lysine added at N-terminal of Z33, Rhodamine B and C12 conjugated to its amine groups
fluorescence of FITC-IgG after incubation (confocal): co-localization of the fluorescence signal; also recorded: co-localization of fluorescence signals
